# Where two headings read alike, the source gives them in different places.
# Experiments:
# [1] = molecular target: T1, 5-LO (Mus musculus, UniProt P48999); settings: once-daily oral agent; cited from earlier work
# T1 construct: from tissue; host or cells: whole animal: wild type mice (129/SvEv, The Jackson Laboratory)
# T1 sequence (P48999 1-674): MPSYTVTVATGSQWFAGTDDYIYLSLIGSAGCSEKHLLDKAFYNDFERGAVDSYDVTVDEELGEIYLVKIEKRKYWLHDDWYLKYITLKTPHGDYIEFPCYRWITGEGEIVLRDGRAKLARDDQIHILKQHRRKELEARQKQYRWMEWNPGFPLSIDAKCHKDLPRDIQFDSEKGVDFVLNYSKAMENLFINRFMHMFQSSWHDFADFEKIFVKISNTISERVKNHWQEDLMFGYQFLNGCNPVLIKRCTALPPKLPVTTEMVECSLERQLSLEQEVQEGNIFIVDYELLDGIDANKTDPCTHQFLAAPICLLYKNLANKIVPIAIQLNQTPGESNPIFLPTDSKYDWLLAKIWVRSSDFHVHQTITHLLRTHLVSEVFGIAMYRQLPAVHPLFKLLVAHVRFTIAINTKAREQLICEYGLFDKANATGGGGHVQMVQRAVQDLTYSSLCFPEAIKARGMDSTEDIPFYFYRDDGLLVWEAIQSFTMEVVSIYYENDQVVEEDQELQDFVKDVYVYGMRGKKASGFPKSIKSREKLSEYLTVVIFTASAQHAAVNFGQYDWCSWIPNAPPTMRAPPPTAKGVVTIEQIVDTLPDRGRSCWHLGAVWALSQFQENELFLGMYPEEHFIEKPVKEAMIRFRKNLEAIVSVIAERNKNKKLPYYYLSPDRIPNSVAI
# [2] = administered orally to rats; cited from earlier work
# [3] = in vivo bronchoscopic instillation into the human lung; cited from earlier work
# [4] = tested on: K. pneumoniae; test: Pulmonary bacterial clearance (lung homogenate CFU) after intratracheal K. pneumoniae challenge in 5-LO knockout mice; format: in vivo, mouse
# Experimental: K. pneumoniae strain 43816, serotype 2 obtained from the ATCC (Assession No. 29939) was grown in tryptic soy broth (Difco) for 18 hours at 37° C. The preparation and intratracheal administration of K. pneumoniae were carried out as described by M. Schneemann et al. [J. Infect. Dis. 167:1358-1363 (1993)]. Bacterial concentration was determined by measuring absorbance at 600 nm and referencing to a standard curve of absorbances vs. known standard CFUs. Bacteria were then pelleted by centrifugation for 30 min at 10,000 rpm, washed ×2 in saline, and resuspended at the desired concentration in saline.
# After appropriate dilution of bacteria in endotoxin-free saline, animals were anesthetized with sodium pentobarbital (approximately 0.2 mL diluted 1:7 in saline intraperitoneally) and the trachea was exposed via a small midline incision. […]
# Plasma and lung CFU were determined as described by M. Schneemann et al. [J. Infect. […]
# LTB4 was administered together with the intratracheal inoculum of K. pneumoniae (50 CFU). […] Second, the present inventors previously found (see FIG. 5) that approximately 7 ng of total LTB4 could be measured in the homogenate of a pair of lungs from Klebsiella-challenged wild type mice. […] Following 24 hours of bacterial inoculation, lungs were harvested and lung homogenate CFUs were determined.
# [5] = tested on: peritoneal macrophages; settings: cited from earlier work
# [6] = tested on: neutrophils from 5-LO knockout mice; test: Phagocytosis of K. pneumoniae by glycogen-elicited peritoneal neutrophils from 5-LO knockout mice; format: cell-based, mouse; settings: 1 nM LTB4, one hour
# Experimental: (§1) For assays of bacterial phagocytosis and killing, alveolar macrophages were purified from bronchoalveolar lavage cells by adherence for 1 hour in HBSS and studied in monolayer culture. Adherent cells were preincubated with 5% K. pneumoniae-specific immune serum (as a source of both complement and specific opsonizing antibody) for 5 minutes at 37° C. prior to assays. Phagocytosis was studied by incubating 10^5 alveolar macrophages with 10^6 K. pneumoniae in each well of an 8-well Labtek® plate (Nunc) for 1 hour at 37° C.; in some experiments, exogenous LTB4 (Cayman) was added concomitantly with bacteria. The supernatants were aspirated and the cells were washed 3 times with HBSS. The slides were then allowed to air dry, Diff-Quik® (Difco) staining was performed, and 200 cells per well were counted to determine number of intracellular K. pneumoniae and percent of alveolar macrophages containing bacteria. Phagocytic index was calculated as the mean percentage of alveolar macrophages containing bacteria multiplied by the mean number of bacteria per alveolar macrophage.
# To obtain peritoneal elicited neutrophils, mice are injected intraperitoneally with 5% glycogen in PBS and peritoneal lavage is performed 5 hours later. Approximately 3×10^6 cells are obtained from each animal, approximately 85-90% of which are neutrophils. These cells are likewise placed into culture for functional studies. […]
# [7] = tested on: Schistosoma mansoni; settings: neutrophils; cited from earlier work
# [8] = tested on: S. typhimurium; settings: intraperitoneal injection; cited from earlier work
# [9] = tested on: normal rat alveolar macrophages; test: Phagocytosis of K. pneumoniae by normal rat alveolar macrophages (phagocytic index); format: cell-based, Wistar rats
# Experimental: as §1
# Alveolar macrophages from Wistar rats were adhered and then incubated for 1 hour with K. pneumoniae alone or in the presence of 1 nM of several 5-LO metabolites (LTB4, LTC4, and 5-HETE). Phagocytic index was subsequently determined as described above in the General Methods.
# A related experiment was also performed to determine if the ability of exogenous LTB4 to enhance bacterial phagocytosis is mediated by its interaction with LTB4 receptors. This experiment was based on the fact that pretreatment with LTB4 desensitizes cells to subsequent LTB4 responsiveness; though an understanding of the mechanism of this effect is not required to practice the present invention, the desensitization is believed to occur by down-regulating receptor expression or coupling. For this experiment, cells were pretreated with LTB4 (1 nM) for 1 hour, washed, and incubated with bacteria plus LTB4.
# [10] = tested on: alveolar macrophages from 5-LO knockout mice; test: Phagocytosis of K. pneumoniae by alveolar macrophages from 5-LO knockout mice (phagocytic index); format: cell-based, mouse; settings: 5-LO knockout alveolar macrophages
# Experimental: as §1
# Cultured alveolar macrophages from knockout mice were incubated in the presence of specific serum for 1 hour with K. pneumoniae alone or in the presence of varying doses of LTB4. Phagocytic index was calculated as described in the General Methods. FIG. 6 graphically depicts the effect of exogenous LTB4 (none, 0.1 nM, and 5 nM LTB4 added) on bacterial phagocytic activity in alveolar macrophages from 5-LO KO mice; each value represents the mean from triplicate cultures. […] Though not required in order to practice the present invention, it is believed that neutrophils manifest similar functional defects in phagocytosis and killing which could contribute to the sensitivity to bacterial pneumonia seen in knockout mice in vivo.
# [11] = 6 ng intratracheally per animal, 6 hours after administration, mice; cited from earlier work
# [12] = mice, once-daily oral dose; cited from earlier work
# [13] = normal rat alveolar macrophages, 1 nM, 1 hour with K. pneumoniae
compound,measurement,setting,value
C[C@H](C#Cc1ccc(Oc2ccc(F)cc2)o1)N(O)C(N)=O [A-79175],efficacy in mice,[1],demonstrated efficacy in mice
CN(C)C(=O)CCSC(SCCC(=O)O)c1cccc(/C=C/c2ccc3ccc(Cl)cc3n2)c1 (stereo not drawn) [MK-571],antigen-induced bronchoconstriction,[2],effectively inhibited antigen-induced bronchoconstriction
"CCCCC/C=C\C[C@@H](O)/C=C/C=C/C=C\[C@@H](O)CCCC(=O)O [LTB4, leukotriene B4]",neutrophil influx,[3],resulted in neutrophil influx
same,effect on in vivo bacterial clearance,[4]; intrapulmonary administration,partially overcame the in vivo impairment in bacterial clearance
same,reduction of lung CFU,"[4]; single 6 ng intratracheal dose with 50 CFU inoculum, 24 hours",approximately 10 fold
same,in vitro phagocytosis and killing of P. aeruginosa and Salmonella typhimurium,[5],enhanced the in vitro phagocytosis and killing
same,phagocytic index,[6],27±8
same,in vitro killing of Schistosoma mansoni,[7],enhanced
same,in vivo clearance of S. typhimurium,[8],enhanced the in vivo clearance
same,effect of LTB4 pretreatment on LTB4-augmented phagocytosis,"[9]; cells pretreated with LTB4 1 nM for 1 hour, washed, then bacteria plus LTB4 1 nM",almost completely abrogated
same,increase in phagocytic index,[9]; [13],approximately 6 fold
same,phagocytic index relative to baseline level,"[10]; 5 nM LTB4, 1 hour with K. pneumoniae, specific serum",approximately three
same,increase of phagocytic index,[10]; exogenous LTB4,approximately 300%
same,effect on phagocytic index,"[10]; none, 0.1 nM and 5 nM LTB4",dose-dependently enhanced the phagocytic index
same,neutrophil influx,[11],brisk neutrophil influx
CCCCC/C=C\C/C=C\C/C=C\C=C\[C@@H](O)CCCC(=O)O [5-HETE],effect on phagocytic index,[9]; [13],"similar, though less pronounced, effect"
"O=C(O)C1(c2ccc3c(c2)OC[C@H](Cc2ccc(-c4ccccc4)cc2)[C@H]3O)CCCC1 [CP-105,696]",collagen-induced arthritis,[12],inhibited collagen-induced arthritis
"CCCCC/C=C\C\C=C/C=C/C=C/[C@@H](SC[C@H](NC(=O)CC[C@H](N)C(=O)O)C(=O)NCC(=O)O)[C@@H](O)CCCC(=O)O [LTC4, leukotriene C4]",effect on phagocytic index,[9]; [13],augmented phagocytosis to a degree similar to LTB4

# Source: patent publication US7696148B1, “Administration of products of the 5-lipoxygenase metabolic pathway to enhance antimicrobial defense” (Board of Trustees of Michigan State University, priority 1996, dated 2010)
